Data reported in patent US10548317B2, “Pesticidally active pyrazole derivatives” (SYNGENTA PARTICIPATIONS AG, priority 2015, dated 2020).

Key:
Assay type in all cases: in vivo
[1] = tested on: Spodoptera littoralis; experiment: Spodoptera littoralis (Egyptian cotton leaf worm) leaf disc spray test; details: foliar, 72 h, application rate of 200 ppm, cotton leaf discs, L1 larvae, 3 days after infestation, read-out: control (at least one of mortality, anti-feedant effect, growth inhibition)
Method: Spodoptera littoralis (Egyptian Cotton Leaf Worm)
Cotton leaf discs were placed on agar in 24-well microtiter plates and sprayed with aqueous test solutions prepared from 10'000 ppm DMSO stock solutions. After drying the leaf discs were infested with five L1 larvae. The samples were assessed for mortality, anti-feedant effect, and growth inhibition in comparison to untreated samples 3 days after infestation. Control of Spodoptera littoralis by a test sample is when at least one of mortality, anti-feedant effect, and growth inhibition is higher than the untreated sample.

[2] = tested on: Plutella xylostella; experiment: Plutella xylostella (diamond back moth) artificial diet test; details: 120 h, application rate of 200 ppm, L2 larvae, 5 days after infestation, read-out: effect in at least one of the two categories (mortality or growth inhibition)
Method: Plutella xylostella (Diamond Back Moth):
24-well microtiter plates with artificial diet were treated with aqueous test solutions prepared from 10'000 ppm DMSO stock solutions by pipetting. After drying, the plates were infested with L2 larvae (10 to 15 per well). The samples were assessed for mortality and growth inhibition in comparison to untreated samples 5 days after infestation. The following compounds gave an effect of at least 80% in at least one of the two categories (mortality or growth inhibition) at an application rate of 200 ppm: 1, 2, 3, 4, 5, 6, 7, 8, 9, 10, 11, 12, 13, 14, 15, 16, 17, 18, 19, 20, 21, 22, 23, 24, 25, 26, 27, 28, 29, 30, 31, 32, 33, 35, 36, 37, 38, 39, 40, 41, 42, 43, 44, 45, 46, 47, 48, 50, 51, 52, 53, 54 and 55.

[3] = tested on: Diabrotica balteata; experiment: Diabrotica balteata (corn root worm) maize sprout test; details: 96 h, application rate of 200 ppm, maize sprouts, L2 larvae, 4 days after infestation, read-out: effect in at least one of the two categories (mortality or growth inhibition)
Method: Diabrotica balteata, (Corn Root Worm)
Maize sprouts, placed on an agar layer in 24-well microtiter plates were treated with aqueous test solutions prepared from 10'000 ppm DMSO stock solutions by spraying. After drying, the plates were infested with L2 larvae (6 to 10 per well). The samples were assessed for mortality and growth inhibition in comparison to untreated samples 4 days after infestation. The following compounds gave an effect of at least 80% in at least one of the two categories (mortality or growth inhibition) at an application rate of 200 ppm: 1, 3, 4, 5, 6, 7, 8, 9, 10, 11, 12, 14, 15, 16, 17, 18, 19, 20, 21, 22, 23, 24, 25, 26, 27, 28, 29, 30, 31, 32, 33, 35, 36, 37, 38, 39, 40, 41, 42, 43, 44, 45, 48, 50, 51, 52, 53, 54 and 55.

[4] = tested on: Thrips tabaci; experiment: Thrips tabaci (onion thrips) sunflower leaf disc test; details: foliar, 144 h, application rate of 200 ppm, sunflower leaf discs, mixed ages, 6 days after infestation
Method: Thrips tabaci (Onion thrips):
(§1) Sunflower leaf discs were placed on agar in 24-well microtiter plates and sprayed with aqueous test solutions prepared from 10'000 ppm DMSO stock solutions. After drying the leaf discs were infested with a thrips population of mixed ages. The samples were assessed for mortality 6 days after infestation.

[5] = tested on: Euschistus heros; experiment: Euschistus heros (neotropical brown stink bug) soybean leaf test; details: 120 h, application rate of 200 ppm, soybean leaves, N2 nymphs, 5 days after infestation, read-out: effect in at least one of the two categories (mortality or growth inhibition)
Method: Euschistus heros (Neotropical Brown Stink Bug)
Soybean leaves on agar in 24-well microtiter plates were sprayed with aqueous test solutions prepared from 10'000 ppm DMSO stock solutions. After drying the leaves were infested with N2 nymphs. The samples were assessed for mortality and growth inhibition in comparison to untreated samples 5 days after infestation. The following compounds gave an effect of at least 80% in at least one of the two categories (mortality or growth inhibition) at an application rate of 200 ppm: 3, 4, 5, 6, 9, 10, 12, 14, 15, 16, 17, 18, 20, 24, 27, 28, 29, 31, 32, 33, 36, 37, 38, 42, 43, 45, 50, 52, 53, 54 and 55.

[6] = tested on: Tetranychus urticae; experiment: Tetranychus urticae (two-spotted spider mite) bean leaf disc test; details: foliar, 192 h, application rate of 200 ppm, bean leaf discs, mixed population (mobile stages), 8 days after infestation
Method: Tetranychus urticae (Two-Spotted Spider Mite):
as §1, with “Bean” for “Sunflower”, “discs” for “discs were placed”, “were” for “and”, “mite” for “thrips”, “on mixed population (mobile stages) 8” for “6”

Cn1nc(C(F)(F)C(F)(F)F)c(C(F)(F)F)c1-n1cc(-n2cc(C(=O)NC3CC3)c(C(F)(F)F)c2)cn1 [Compound 45]
≥ 80%: control (mortality, anti-feedant effect or growth inhibition) at 200 ppm [1] | percent effect (mortality or growth inhibition) at 200 ppm [2] | percent effect (mortality or growth inhibition) at 200 ppm [3] | mortality at 200 ppm [4] | percent effect (mortality or growth inhibition) at 200 ppm [5]

Cn1nc(C(F)(F)C(F)(F)F)c(C(F)(F)F)c1-n1cc(-c2cc(C(=O)NC3CC3F)c(Cl)s2)cn1 (stereo not shown) [Compound 32]
≥ 80%: control (mortality, anti-feedant effect or growth inhibition) at 200 ppm [1] | percent effect (mortality or growth inhibition) at 200 ppm [2] | percent effect (mortality or growth inhibition) at 200 ppm [3] | mortality at 200 ppm [4] | percent effect (mortality or growth inhibition) at 200 ppm [5]

Cn1nc(C(F)(F)C(F)(F)F)c(C(F)(F)F)c1-n1cc(-c2cc(C(=O)NCC=C(Cl)Cl)c(Cl)s2)cn1 [Compound 28]
≥ 80%: control (mortality, anti-feedant effect or growth inhibition) at 200 ppm [1] | percent effect (mortality or growth inhibition) at 200 ppm [2] | percent effect (mortality or growth inhibition) at 200 ppm [3] | mortality at 200 ppm [6] | percent effect (mortality or growth inhibition) at 200 ppm [5]

Cn1nc(OC(F)(F)C(F)OC(F)(F)F)c(C(F)(F)F)c1-n1cc(-c2cc(C(=O)NC3CC3)c(Cl)s2)cn1 (stereo not shown) [Compound 55]
≥ 80%: control (mortality, anti-feedant effect or growth inhibition) at 200 ppm [1] | percent effect (mortality or growth inhibition) at 200 ppm [2] | percent effect (mortality or growth inhibition) at 200 ppm [3] | percent effect (mortality or growth inhibition) at 200 ppm [5]

Cn1nc(OC(F)(F)C(F)OC(F)(F)F)c(C(F)(F)F)c1-n1cc(-c2cc(C(=O)NC3(C#N)CC3)c(Cl)s2)cn1 (stereo not shown) [Compound 54]
≥ 80%: control (mortality, anti-feedant effect or growth inhibition) at 200 ppm [1] | percent effect (mortality or growth inhibition) at 200 ppm [2] | percent effect (mortality or growth inhibition) at 200 ppm [3] | percent effect (mortality or growth inhibition) at 200 ppm [5]

CNC(=O)c1cc(-c2cnn(-c3c(C(F)(F)F)c(C(F)(F)C(F)(F)F)nn3C)c2)sc1Cl [Compound 18]
≥ 80%: control (mortality, anti-feedant effect or growth inhibition) at 200 ppm [1] | percent effect (mortality or growth inhibition) at 200 ppm [2] | percent effect (mortality or growth inhibition) at 200 ppm [3] | mortality at 200 ppm [4] | percent effect (mortality or growth inhibition) at 200 ppm [5]

C=C(F)CNC(=O)c1cc(-c2cnn(-c3c(C(F)(F)F)c(C(F)(F)C(F)(F)F)nn3C)c2)sc1Cl [Compound 24]
≥ 80%: control (mortality, anti-feedant effect or growth inhibition) at 200 ppm [1] | percent effect (mortality or growth inhibition) at 200 ppm [2] | percent effect (mortality or growth inhibition) at 200 ppm [3] | mortality at 200 ppm [4] | percent effect (mortality or growth inhibition) at 200 ppm [5]

Cn1nc(C(F)(F)C(F)(F)F)c(C(F)(F)F)c1-n1cc(-c2cc(C(=O)NC3(c4ccccn4)CC3)c(Cl)s2)cn1 [Compound 15]
≥ 80%: control (mortality, anti-feedant effect or growth inhibition) at 200 ppm [1] | percent effect (mortality or growth inhibition) at 200 ppm [2] | percent effect (mortality or growth inhibition) at 200 ppm [3] | mortality at 200 ppm [6] | percent effect (mortality or growth inhibition) at 200 ppm [5]

Cn1nc(C(F)(F)C(F)(F)F)c(C(F)(F)F)c1-n1cc(-c2cc(C(=O)NCC(F)(F)F)c(Cl)s2)cn1 [Compound 14]
≥ 80%: control (mortality, anti-feedant effect or growth inhibition) at 200 ppm [1] | percent effect (mortality or growth inhibition) at 200 ppm [2] | percent effect (mortality or growth inhibition) at 200 ppm [3] | mortality at 200 ppm [4] | percent effect (mortality or growth inhibition) at 200 ppm [5]

Cn1nc(OC(F)(F)C(F)C(F)(F)F)c(C(F)(F)F)c1-n1cc(-c2cc(C(=O)NC3(C#N)CC3)c(Cl)s2)cn1 (stereo not shown) [Compound 52]
≥ 80%: control (mortality, anti-feedant effect or growth inhibition) at 200 ppm [1] | percent effect (mortality or growth inhibition) at 200 ppm [2] | percent effect (mortality or growth inhibition) at 200 ppm [3] | percent effect (mortality or growth inhibition) at 200 ppm [5]

Cn1nc(C(F)(F)C(F)(F)F)c(C(F)(F)F)c1-n1cc(-c2cc(C(N)=O)c(Cl)s2)cn1 [Compound 16]
≥ 80%: control (mortality, anti-feedant effect or growth inhibition) at 200 ppm [1] | percent effect (mortality or growth inhibition) at 200 ppm [2] | percent effect (mortality or growth inhibition) at 200 ppm [3] | mortality at 200 ppm [4] | percent effect (mortality or growth inhibition) at 200 ppm [5]
